Laboratory results as given in patent US20200078303A1, “PHARMACEUTICAL FORMULATIONS OF SUVOREXANT” (Druggability Technologies IP HoldCo Ltd., priority 2016, published 2020).

Experiments:
[1] = cited from earlier work
human plasma proteins = details: cited from earlier work
[2] = Rat oral pharmacokinetics at 3 mg/kg; format: in vivo; details: fasted rats
Method: A rat study with oral administration at 3 mg/kg was performed. Two pharmaceutical formulations of the present invention, the crystalline compound and crushed BELSOMRA® tablets were administered and plasma concentrations were measured. Absorption following the administration of the pharmaceutical formulations of the present invention was immediate, while absorption for the crystalline and BELSOMRA® were slower.

SMILES	mean absolute bioavailability ([1]; 10 mg)	mean t½ ([1]; 95% CI: 12 to 13)	median tmax ([1]; fasted conditions)	tmax range ([1]; fasted conditions)	change in AUC or Cmax with high-fat meal ([1]; high-fat meal)	delay in tmax with high-fat meal ([1]; high-fat meal)	mean volume of distribution ([1]; human, in vivo)	radiolabeled dose recovered in the feces ([1]; human, in vivo)	radiolabeled dose recovered in the urine ([1]; human, in vivo)	accumulation ([1]; once-daily dosing)	time to steady-state ([1]; once-daily dosing)	dose proportionality of exposure ([1]; range of 10-80 mg)	bound to human plasma proteins (human plasma proteins)	absorption after oral administration (in words) [2]
Cc1ccc(-n2nccn2)c(C(=O)N2CCN(c3nc4cc(Cl)ccc4o3)CC[C@H]2C)c1 [Suvorexant, [(7R)-4-(5-chloro-2-benzoxazolyl)hexahydro-7-methyl-1H-1,4-diazepin-1-yl][5-methyl-2-(2H-1,2,3-triazol-2-yl)phenyl]methanone]	82%	approximately 12 hours	2 h	0.5 to 6 h	no meaningful change	approximately 1.5 hours	approximately 49 liters	approximately 66%	23%	1- to 2 fold	≤ 3 days	less than strictly dose-proportional	> 99%	–
Cc1ccc(-n2nccn2)c(C(=O)N2CCN(c3nc4cc(Cl)ccc4o3)CC[C@H]2C)c1 [crystalline compound]	–	–	–	–	–	–	–	–	–	–	–	–	–	slower
